# Key:
# Wistar rats = assay: Adolescent AR-R17779 exposure, adult operant beer self-administration (acquisition, extinction, relapse); assay type: in vivo, rat
# Source text: (§1) Statistical Analysis. All statistical analyses followed the procedures/flowchart indicated by Keppel and Zedeck (1986). Briefly, the experiments examining the acquisition of alcohol consumption utilized the dependent measure of average weekly alcohol intake. The overall analyses were mixed factor ANOVAs with between subject factors of drug dose and EtOH exposure history (when applicable) and a within subject factor of Week. The statistical analyses surveying relapse drinking examined the average EtOH intake for the three days prior to deprivation and daily EtOH intake values following re-exposure. Post-hoc comparisons for between subject factors were performed with Tukey's b analyses. The Tukey's b post-hoc comparison is a modified Tukey post-hoc comparison that reduces the prohibitive penalty for unequal sample size. There is a single assumption of ANOVAs that cannot be violated. […] Therefore, within subject variables should not be treated like between subject variables and analyzed with forced ANOVAs and inappropriate post-hoc analyses. Proper within subject post-hoc analyses are t-tests and orthogonal contrasts (Keppel and Zeddeck, 1986). Given the general lack of understanding of orthogonal contrasts, the findings from t-test analyses are being reported. Concerns of Type I error rate inflation is eliminated by the proper reading of Rodgers (1967). Type 1 error rate inflations is Ψi (i=1, . . . , J−1), and not Bonferroni, an improper estimate. Given the effect size of the current data set there is no likelihood of Type 1 error rate inflation for any reported analyses (c.f., Rodgers and Roberts, 2012; Roberts, 2011).
# Effects of exposure to the α7 agonist AR-R17779 during early adolescence on adult EtOH consumption (acquisition, maintenance, extinction, craving, and relapse). The current experiment was conducted to generalize the effects of exposure to an α7 NAchR receptor agonist during adolescence on adult alcohol consumption in non-selected (non-genetically predisposed rats). Brief exposure to AR during adolescence in Wistar rats produced similar alterations in adult beer consumption. Male and female Wistar rats were exposed to AR (0, 3, or 10 mg/kg) on PND 29, 30, 33, 35, 36, and 37 (no alcohol exposure during adolescence). On PND 75 rats were allowed to self-administer beer (9% IPA) under operant conditions.
# α7 nicotinic receptor = α7 nicotinic receptor (Homo sapiens, UniProt P36544); settings: cited from earlier work
# [1] = test system: alcohol preferring (P) rats; assay: Exposure to α7 agonist AR-R17779 during early adolescence, adult EtOH consumption (acquisition and relapse drinking); assay type: in vivo, rat; settings: for duration of alcohol deprivation effect (ADE): vs baseline intake
# Source text: (§2) Subjects. The alcohol-preferring (P) rats used in the current experiments were from the standard P stock maintained by the Animal Breeding Core of the Indiana University Alcohol Research Center (IUARC). Animals used in this study were maintained in facilities fully accredited by the Association for the Assessment and Accreditation of Laboratory Animal Care. All research protocols were approved by the IUSM Institutional Animal Care and Use Committee (IUSM IACUC) and were in accordance with the guidelines of the Institutional Care and Use Committee of the National Institute on Drug Abuse, the NIH, and the Guide for the Care and Use of Laboratory Animals (2011).
# Effects of exposure to the α7 agonist AR-R17779 during early adolescence on adult EtOH consumption. Adolescent male (n=14) and female (n=13) alcohol preferring (P) rats were exposed to the α7 nicotinic receptor agonist, AR-R17779 ((2S)-2′H-spiro[4-azabicyclo[2.2.2]octane-2,5′-[1,3]oxazolidin]-2′-one) (AR; Tocris) on PND 29, 30, 33, 35, 36, and 37. The doses of AR-R17779 was 0 (saline controls), 3 or 10 mg/kg (all drugs administered i.p.). […] The doses of AR employed are typical for peripheral administered studies and results in observed alterations in specific behaviors. All rats were group housed between PND 26 and 73 (adulthood). Subjects only received treatment with AR_on the days specified.
# as §1
# α3β4 = α3β4 (Homo sapiens, UniProt P30926+P32297); settings: read-out: binding to α3β4 IC50; cited from earlier work
# P rats = assay: Pretreatment with α7 NAM dehydronorketamine prior to adolescent binge-like alcohol exposure (AIE), adult EtOH consumption; assay type: in vivo, rat; settings: for effect on deleterious effects of adolescent alcohol exposure (adult alcohol intake, weeks 1-2): males and females
# Source text: as §2, §1
# Effects of pretreatment with an α7 NAM dehydronorketamine prior to binge-like exposure during adolescence on adult EtOH consumption. There were 5 treatment groups. Adolescent male (n=24) and female (n=26) P rats were used in the experiment. The AIE exposure began on PND 28. Rats were given 4 g/kg alcohol (25% v/v; gavage) every Monday, Tuesday, Thursday and Friday (4 days a week; 3 days with no alcohol exposure) from post-natal day 28-48. Control (CON) groups received an equivalent volume administration of water. In the AIE groups, rats were injected (i.p.) with 0 (saline), 10 or 50 mg/kg of the α7 nicotinic receptor NAM dehydronorketamine (DHNK; Santa Cruz biotechnology) 2 hours prior to AIE exposure. CON groups received (i.p.) injections of saline or 50 mg/kg DHNK 2 hours prior to water gavage exposure. All rats were group housed between post-natal day 48 and 73 (adulthood). Pretreatment and gavage administration occurred during PND 28, 29, 30, 31, 34, 35, 37, 39, 40, 41, 44, 45, 47, and 48. Subjects were not exposed to DHNK any time after PND48.
# female P rats = assay: Pretreatment with α7 NAM SB-277011-A prior to adolescent binge alcohol exposure (ABAE), adult EtOH consumption; assay type: in vivo, rat
# Method: Effects of exposure to the α7 negative allosteric modulator (NAM) SB-277011-A prior to adolescence binge alcohol exposure on adult EtOH consumption. Currently, there are 3 commercially available α7 NAMs: DHNK, SB-277011-A (SB), and Butaclamol (AY-23,028). SB is also a selective D3 antagonist. Butaclamol is a typical antipsychotic that is also a non-selective dopamine receptor antagonist. Referring now to FIG. 7, the ability of SB to prevent ABAE-induced increases were assessed in adult EtOH consumption. Briefly, female P rats were exposed to the standard ABAE protocol. ABAE and CON rats were injected (i.p.) with 0 (water), 1 or 5 mg/kg SB (Sigma) 2 hours before gavage treatment. […] Statistically, there was a significant ABAE X SB Dose X Day interaction term (F12,244=2.3; p<0.01). Therefore, the data sets indicate that despite having different off-target sites of activation (SB-D3 antagonist), both α7 NAMs prevented the deleterious consequences of ABAE.
# [2] = 3 and 10 mg/kg AR during adolescence
# [3] = 1 or 5 mg/kg SB i.p. 2 hours before gavage
# Sequence of α3β4 (P32297 32-505): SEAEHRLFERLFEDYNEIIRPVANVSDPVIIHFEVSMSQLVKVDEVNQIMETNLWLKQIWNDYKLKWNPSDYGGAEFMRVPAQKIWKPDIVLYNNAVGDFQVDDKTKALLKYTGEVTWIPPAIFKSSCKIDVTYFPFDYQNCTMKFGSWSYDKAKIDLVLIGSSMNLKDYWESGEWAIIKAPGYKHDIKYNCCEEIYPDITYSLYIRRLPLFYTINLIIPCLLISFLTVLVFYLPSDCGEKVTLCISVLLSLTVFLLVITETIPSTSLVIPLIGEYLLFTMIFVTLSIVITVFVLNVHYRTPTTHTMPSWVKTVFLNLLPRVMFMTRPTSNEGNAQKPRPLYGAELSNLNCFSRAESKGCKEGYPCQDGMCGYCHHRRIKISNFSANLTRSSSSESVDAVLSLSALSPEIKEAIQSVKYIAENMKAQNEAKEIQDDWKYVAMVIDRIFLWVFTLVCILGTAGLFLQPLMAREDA
# Sequence of α3β4 (P30926 22-498): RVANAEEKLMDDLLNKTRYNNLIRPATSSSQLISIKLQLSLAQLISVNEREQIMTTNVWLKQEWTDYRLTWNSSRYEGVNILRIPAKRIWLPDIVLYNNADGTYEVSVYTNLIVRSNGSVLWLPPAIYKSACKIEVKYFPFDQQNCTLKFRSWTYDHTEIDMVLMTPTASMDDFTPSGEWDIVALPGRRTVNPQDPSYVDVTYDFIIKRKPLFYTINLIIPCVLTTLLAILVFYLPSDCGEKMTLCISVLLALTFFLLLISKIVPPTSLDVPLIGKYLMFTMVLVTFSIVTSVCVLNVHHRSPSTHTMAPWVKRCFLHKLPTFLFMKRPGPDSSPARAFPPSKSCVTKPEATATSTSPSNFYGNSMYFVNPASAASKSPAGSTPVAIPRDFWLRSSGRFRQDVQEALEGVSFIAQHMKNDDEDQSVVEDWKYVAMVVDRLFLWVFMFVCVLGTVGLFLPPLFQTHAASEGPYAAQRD
# Sequence of α7 nicotinic receptor (P36544 23-502): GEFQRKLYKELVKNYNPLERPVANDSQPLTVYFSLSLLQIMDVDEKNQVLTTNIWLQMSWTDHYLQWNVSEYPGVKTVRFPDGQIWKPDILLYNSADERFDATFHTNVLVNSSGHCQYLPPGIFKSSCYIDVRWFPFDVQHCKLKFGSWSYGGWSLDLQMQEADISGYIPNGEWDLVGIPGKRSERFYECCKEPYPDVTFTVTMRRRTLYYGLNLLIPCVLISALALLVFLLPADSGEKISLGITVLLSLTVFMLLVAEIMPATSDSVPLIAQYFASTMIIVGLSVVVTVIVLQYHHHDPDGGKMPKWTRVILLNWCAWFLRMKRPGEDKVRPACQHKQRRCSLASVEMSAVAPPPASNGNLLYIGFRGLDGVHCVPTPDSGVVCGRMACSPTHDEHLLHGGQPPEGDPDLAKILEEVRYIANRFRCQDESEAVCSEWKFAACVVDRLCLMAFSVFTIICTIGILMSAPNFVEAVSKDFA
compound,measurement,setting,value
"O=C1NC[C@@]2(CN3CCC2CC3)O1 [AR-R17779, (2S)-2′H-spiro[4-azabicyclo[2.2.2]octane-2,5′-[1,3]oxazolidin]-2′-one]","beer self-administration during adulthood (FIG. 4, *)",Wistar rats; [2],3 and 10 AR>saline
same,"beer self-administration during adulthood (FIG. 4, +)",Wistar rats; [2],10>3>saline
same,"acquisition of alcohol self-administration, sessions 7-14","Wistar rats; AR 3 or 10 mg/kg during adolescence, beer (9% IPA), operant",acquired alcohol self-administration faster than controls
same,rate of extinction learning,"Wistar rats; adolescent exposure, no alcohol available",retarded the rate of extinction learning
same,relapse drinking (individual ANOVAs),"Wistar rats; alcohol re-exposure, p values<0.001",enhanced relapse drinking
same,"lever responding, extinction session 3",Wistar rats; highest dose of AR-R17779,responded more on the lever previously associated with delivery of alcohol than all other groups
same,alcohol consumed during re-exposure sessions (post-hoc),Wistar rats; vs saline controls,consumed more alcohol than control rats (saline) during the initial 3 re-exposure sessions
same,"lever responding, extinction sessions 1 and 2","Wistar rats; vs saline treated rats, Tukey's b",responded more on the lever previously associated with the delivery of alcohol
same,affinity for receptors other than α7 nicotinic receptor,α7 nicotinic receptor,no or minimal affinity for all other examined receptors
same,duration of alcohol deprivation effect (ADE),"[1]; female P rats, 3 mg/kg AR during adolescence",2 days
same,duration of alcohol deprivation effect (ADE),"[1]; female P rats, 10 mg/kg AR during adolescence",3 days
same,"adult alcohol intake, 1st week of alcohol access","[1]; female P rats, 10 mg/kg AR i.p. during early adolescence vs saline or 3 mg/kg, Tukey's b",consumed more alcohol than rats administered saline or 3 mg/kg AR during adolescence
same,"relapse EtOH drinking, Day 1 of EtOH re-exposure","[1]; female P rats, 10 mg/kg AR vs 3 mg/kg group",consumed more alcohol than the 3 mg/kg group
same,"relapse EtOH drinking, 2nd re-exposure day","[1]; female P rats, 10 mg/kg AR vs saline",consumed more alcohol than rats administered saline
same,"adult alcohol intake, 2nd week of alcohol access","[1]; female P rats, 3 and 10 mg/kg AR i.p. during early adolescence vs saline, p<0.05",10 mg/kg>3 mg/kg>saline
same,"relapse EtOH drinking, re-exposure day 3","[1]; female P rats, 3 and 10 mg/kg AR vs saline",10 mg/kg>3 mg/kg>Saline
same,"relapse EtOH drinking (FIG. 3, +)","[1]; female and male P rats, 10 mg/kg during adolescence vs saline",consumed more alcohol than saline controls
same,"average alcohol intake in adulthood (FIG. 2, #)","[1]; female and male rats, 3 mg/kg during adolescence",3 mg/kg>saline
same,"average alcohol intake in adulthood (FIG. 2, *)","[1]; female and male rats, 10 mg/kg during adolescence",10 mg/kg AR-R17779>3 mg/kg and saline
same,"ADE, EtOH intake vs baseline","[1]; male P rats, 3 mg/kg AR during adolescence, p<0.05",elevated levels of EtOH intake during the 1st re-exposure day compared to baseline intake
same,"ADE, EtOH intake vs baseline","[1]; male P rats, 10 mg/kg AR during adolescence",Evidence of an ADE was detected during re-exposure days 1-3
same,"adult alcohol intake, 1st and 2nd weeks of alcohol access","[1]; male P rats, 10 mg/kg AR i.p. during early adolescence vs saline or 3 mg/kg, p<0.05",consumed more alcohol than rats administered saline or 3 mg/kg AR
same,"relapse EtOH drinking, group differences during re-exposure days 1-4","[1]; male P rats, AR 0, 3, 10 mg/kg, p>0.083",no significant group differences
"NC1(c2ccccc2Cl)CCC=CC1=O (centres unmarked) [DHNK, 5,6-dehydronorketamine]",IC50,α3β4,> 200 µM
same,"effect on deleterious effects of adolescent alcohol exposure (adult alcohol intake, weeks 1-2)","P rats; P rats, 10 mg/kg DHNK i.p. 2 hours prior to AIE",blocked the deleterious effects of adolescent alcohol exposure
same,"effect on deleterious effects of adolescent alcohol exposure (adult alcohol intake, weeks 1-2)","P rats; P rats, 50 mg/kg DHNK i.p. 2 hours prior to AIE",blocked the deleterious effects of adolescent alcohol exposure
same,adult alcohol drinking without adolescent alcohol (CON-50 mg/kg DHNK),"P rats; P rats, 50 mg/kg DHNK i.p. prior to water gavage",did not alter alcohol drinking during adulthood
same,effect on AIE-enhanced relapse drinking,"P rats; P rats, DHNK pretreatment",altered the enhancement in relapse drinking produced by AIE exposure
same,relapse alcohol drinking vs baseline,"P rats; female P rats, AIE-10 mg/kg DHNK, paired t-tests",increase in alcohol consumption (compared to baseline during the 1st re-exposure day)
same,relapse alcohol drinking vs baseline,"P rats; female P rats, ATE-50 mg/kg DHNK, paired t-tests",increase in alcohol consumption during the first three re-exposure days
same,relapse alcohol drinking vs baseline,"P rats; female P rats, CON-50 mg/kg DHNK, paired t-tests",significant increase in alcohol drinking during the 1st re-exposure day
same,relapse alcohol drinking vs baseline,"P rats; male P rats, AIE-10 mg/kg DHNK",increase in drinking during the 1st re-exposure day
same,relapse alcohol drinking vs baseline (ADE),"P rats; male P rats, AIE-50 mg/kg",did not display an ADE
same,relapse alcohol drinking vs baseline (ADE),"P rats; male P rats, CON-50 mg/kg",did not display an ADE
same,effect on AIE-induced increase of adult alcohol consumption (overall),"P rats; male and female P rats, DHNK i.p. 2 hours prior to AIE",blocked the ability of adolescent alcohol exposure to increase alcohol consumption during adulthood
"N#Cc1ccc2c(c1)CCN(CC[C@H]1CC[C@H](NC(=O)c3ccnc4ccccc34)CC1)C2 [SB-277011-A, N-{trans-4-[2-(6-cyano-3,4-dihydroisoquinolin-2(1H)-yl)ethyl]cyclohexyl}quinoline-4-carboxamide]","relapse EtOH drinking, ABAE vs corresponding CON group (FIG. 8, +)",female P rats; 1 mg/kg SB prior to ABAE,consumed more alcohol than corresponding CON group
same,"adult EtOH consumption (FIG. 7, +)",female P rats; 1 mg/kg vs 5 mg/kg SB,1 mg/kg>5 mg/kg SB rats
same,"adult EtOH consumption (FIG. 7, #)",female P rats; 5 mg/kg SB vs water-ABAE and 1 mg/kg SB,water-ABAE and 1 mg/kg SB>5 mg/kg SB rats
same,"adult EtOH consumption (FIG. 7, *)",female P rats; 1 and 5 mg/kg SB vs water-ABAE,water-ABAE rats >1 mg and 5 mg/kg SB rats
same,effect on ABAE-induced enhancement of EtOH consumption during relapse (ADE),female P rats; [3],prevented ABAE-induced enhancement of EtOH consumption during relapse (ADE) conditions
same,effect on ABAE-induced increase in EtOH consumption during acquisition,female P rats; [3],prevented the ABAE-induced increase in EtOH consumption during acquisition

# From patent US20220378777A1, “COMPOSITIONS AND METHODS FOR TREATING ALCOHOL USE DISORDER OR A RELATED CONDITION THEREOF” (priority 2019, published 2022)
